Experimental data: patent publication US20250346581A1, “PROCESS FOR SYNTHESIS OF GALBULIMIMA ALKALOID 18 AND COMPOUNDS USEFUL AS OPIOID RECEPTOR ANTAGONISTS AND AGONISTS” (The Scripps Research Institute, priority 2022, published 2025)
pEC50, pIC50, pKi: −log10 of the molar value. “Also recorded” adds a separate entry of the source. Like-named read-outs stand apart in the source and are kept apart here. Marks after values point to notes of the source that are not given here. Blank lines part the entries; values can stand above or below the compound they belong to.

What was measured:
KOR [1] = molecular target: T1, KOR (Homo sapiens, UniProt P41145); assay: KOR cAMP inhibition screening, antagonist mode vs. 100 nM U69,593; conditions: Antagonist vs. 100 nM U69,593 IC50 (nM)
T1 sequence (P41145 whole entry): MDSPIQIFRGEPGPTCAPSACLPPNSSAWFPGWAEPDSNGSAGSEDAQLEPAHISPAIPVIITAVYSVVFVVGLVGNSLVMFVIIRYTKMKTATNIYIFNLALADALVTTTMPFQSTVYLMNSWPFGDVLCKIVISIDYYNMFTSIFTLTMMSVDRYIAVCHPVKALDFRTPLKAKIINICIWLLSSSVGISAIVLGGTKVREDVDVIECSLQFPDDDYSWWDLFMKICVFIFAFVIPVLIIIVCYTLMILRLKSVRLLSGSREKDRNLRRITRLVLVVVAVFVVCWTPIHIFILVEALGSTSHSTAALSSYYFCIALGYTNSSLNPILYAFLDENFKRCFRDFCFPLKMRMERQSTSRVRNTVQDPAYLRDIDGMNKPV

KOR [2] = molecular target: T1, KOR; assay: KOR cAMP inhibition screening, agonist mode
[3] = molecular target: T2, kappa-opioid receptors (KOR) (Homo sapiens, UniProt P41145); assay: NIMH PDSP radioligand displacement, [3H]U-69593; type: binding; conditions: for displacement of [3H]U-69593 from KOR: 10 μM
T2 construct: NIMH Psychoactive Drug Screening Program (screening service)
T2 sequence (P41145 whole entry): as above

KOR [4] = molecular target: T1, KOR; assay: TANGO assay KOR; type: cell-based
[5] = molecular target: nociceptin opioid receptors (Homo sapiens, UniProt P41146); assay: Follow-up assay nociceptin opioid receptor; type: cell-based
Chain of nociceptin opioid receptors (P41146 whole entry): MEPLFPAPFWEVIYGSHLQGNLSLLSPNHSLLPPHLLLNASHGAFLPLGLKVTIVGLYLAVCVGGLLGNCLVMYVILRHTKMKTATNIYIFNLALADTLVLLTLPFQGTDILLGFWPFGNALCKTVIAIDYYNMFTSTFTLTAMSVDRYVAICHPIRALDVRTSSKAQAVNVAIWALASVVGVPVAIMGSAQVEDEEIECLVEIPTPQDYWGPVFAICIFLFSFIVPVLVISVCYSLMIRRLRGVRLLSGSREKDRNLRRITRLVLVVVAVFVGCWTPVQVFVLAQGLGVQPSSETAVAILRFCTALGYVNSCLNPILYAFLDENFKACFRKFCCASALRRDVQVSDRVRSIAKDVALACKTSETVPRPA

delta-opioid receptors = delta-opioid receptors (Homo sapiens, UniProt P41143); assay: Follow-up assay delta-opioid receptor; type: cell-based
Chain of delta-opioid receptors (P41143 whole entry): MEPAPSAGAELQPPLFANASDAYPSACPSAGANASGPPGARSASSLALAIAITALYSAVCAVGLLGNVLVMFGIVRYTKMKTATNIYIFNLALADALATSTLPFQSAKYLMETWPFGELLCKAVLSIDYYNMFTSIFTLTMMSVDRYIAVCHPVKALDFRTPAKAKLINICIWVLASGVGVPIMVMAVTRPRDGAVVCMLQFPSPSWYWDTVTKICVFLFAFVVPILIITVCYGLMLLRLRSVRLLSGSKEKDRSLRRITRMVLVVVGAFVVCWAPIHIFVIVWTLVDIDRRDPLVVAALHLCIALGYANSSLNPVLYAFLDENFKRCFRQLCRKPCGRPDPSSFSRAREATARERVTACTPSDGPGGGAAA

>40 common drug targets = assay: NIMH PDSP binding screen of common drug targets; conditions: 10 μM
MOR = MOR (Homo sapiens, UniProt P35372); assay: TANGO assay MOR; type: cell-based
Chain of MOR (P35372 whole entry): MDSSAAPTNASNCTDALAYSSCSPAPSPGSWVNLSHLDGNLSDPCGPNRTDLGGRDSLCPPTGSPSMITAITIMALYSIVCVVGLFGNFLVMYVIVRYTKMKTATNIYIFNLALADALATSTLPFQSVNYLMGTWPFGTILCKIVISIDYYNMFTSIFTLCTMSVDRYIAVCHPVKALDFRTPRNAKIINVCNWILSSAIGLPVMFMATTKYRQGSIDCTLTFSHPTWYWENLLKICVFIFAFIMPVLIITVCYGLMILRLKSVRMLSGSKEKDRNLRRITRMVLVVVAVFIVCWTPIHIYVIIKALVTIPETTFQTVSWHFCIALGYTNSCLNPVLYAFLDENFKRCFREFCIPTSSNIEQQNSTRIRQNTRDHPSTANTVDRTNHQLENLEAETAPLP

Mas-related GPCRs = assay: Follow-up assay Mas-related GPCRs; type: cell-based
[6] = molecular target: T3, mu-opioid receptors (MOR) (Homo sapiens, UniProt P35372); assay: NIMH PDSP radioligand displacement, [3H]DAMGO; type: binding; conditions: 10 μM
T3 construct: NIMH Psychoactive Drug Screening Program (screening service)
T3 sequence (P35372 whole entry): as above

mouse [7] = conditions: 5 mg/kg; cited from earlier work
mouse [8] = conditions: 5 mg/kg; cited from earlier work; remark: listed apart in the source
M1-5 = assay: Muscarinic receptor binding (FIG. 3)
Source text: Thus, the topology changes that differentiate the two subclasses also differentiate target selectivity.

cats = conditions: 2.5 mg/kg, i.v. administration; cited from earlier work
rabbit intestine = conditions: 0.1 mg/L, furmethide-induced spasm; cited from earlier work
KOR [9] = molecular target: T1, KOR
mammals [10] = conditions: cited from earlier work
mammals [11] = conditions: in vivo; cited from earlier work
[12] = read-out: Agonist Emax (% U69,593)
[13] = read-out: Agonist Emax (% U69,593), KOR cAMP, agonist mode

Compound: CC1CCCC(C2CC3C4CCCCC45C=C(I)C4C2(C)OC345)N1C (stereo not drawn)
IC50 (KOR [1]): 830 nM

Compound: C#CCOC(=O)C1=CC23CCCCC2C2CC(C4CCCC(C)N4)C4(C)OC23C14 (stereo not drawn)
Emax (KOR [2]; [12]): 5%
IC50 (KOR [1]): 556 nM

Compound: CCOC(=O)C1=CC23CCCCC2C2CC(C4CCCC(C)N4C)C4(C)OC23C14 (stereo not drawn)
Emax (KOR [2]; [12]): 15%
IC50 (KOR [1]): 3390 nM

Emax (KOR [2]; [13]): 8%
Compound: CC1CCCC(C2CC3C4CCCCC45C=C(C#N)C4C2(C)OC345)N1C (stereo not drawn)

Compound: CC1CCCC([C@H]2C[C@H]3C4CCCCC45C=C(I)[C@H]4C2(C)OC345)N1C (stereo partly drawn)
IC50 (KOR [1]): 1400 nM

Emax (KOR [2]; [13]): 2%
Compound: C=CCN1C(C)CCCC1C1CC2C3CCCCC34C=C(C(=O)OC)C3C1(C)OC234 (stereo not drawn)

Compound: COC(=O)C1=CC23CCCCC2C2CC(C4CCCC(C)N4C(C)=O)C4(C)OC23C14 (stereo not drawn)
Emax (KOR [2]; [12]): 10%
IC50 (KOR [1]): > 10000 nM

Compound: CC1CCCC(C2CC3C4CCCCC45C=C(CO)C4C2(C)OC345)N1C (stereo not drawn)
Emax (KOR [2]; [12]): 12%
IC50 (KOR [1]): 116 nM

Compound: COCC1=CC23CCCCC2C2CC(C4CCCC(C)N4C)C4(C)OC23C14 (stereo not drawn)
Emax (KOR [2]; [12]): 14%
IC50 (KOR [1]): 3220 nM

Emax (KOR [2]; [13]): 12%
Compound: CC(=O)C1=CC23CCCCC2C2CC(C4CCCC(C)N4C)C4(C)OC23C14 (stereo not drawn)

Emax (KOR [2]; [13]): 10%
Compound: COCC(=O)C1=CC23CCCCC2C2CC(C4CCCC(C)N4C)C4(C)OC23C14 (stereo not drawn)

Emax (KOR [2]; [13]): 4%
Compound: CC1CCCC(C2CC3C4CCCCC45C=C(C4=NCCO4)C4C2(C)OC345)N1C (stereo not drawn)

Emax (KOR [2]; [13]): 5%
Compound: COC1CC23CCCCC2C2CC(c4cccc(C)n4)C4(C)OC23C14 (stereo not drawn)

Compound: COC(=O)C1=CC23CCCCC2[C@@H]2C[C@H](c4cccc(C)c4)C4(C)OC23[C@@H]14 (stereo partly drawn)
Agonist Emax (% U69,593) (KOR [2]): 60* % U69,593
pEC50 (KOR [2]): 5.98

Compound: COC(=O)C1=CC23CCCCC2[C@@H]2C[C@H](c4cccnc4)C4(C)OC23[C@@H]14 (stereo partly drawn)
Emax (KOR [2]; [12]): 19%
IC50 (KOR [1]): > 10000 nM

Compound: COC(=O)C1=CC23CCCCC2[C@H]2C[C@@H](C4CCCC(C)N4)C(C)(O3)[C@@H]12 (single isomer, unassigned) [ent-GB18]
displacement of [3H]U-69593 from KOR [3]: 56%
pKi ([3]; [3H]U-69593 displacement): 5.96

Compound: COC(=O)C1=CC23CCCCC2[C@@H]2C[C@H](C4CCCC(C)N4)C(C)(O3)[C@H]12 (single isomer, unassigned) [nat-GB18]
displacement of [3H]U-69593 from KOR [3]: 87%
pIC50 (KOR [4]; TANGO, antagonist): 8.00
ligation of nociceptin opioid receptors [5]: not strongly ligated
ligation of delta-opioid receptors (delta-opioid receptors): not strongly ligated
binding to >40 common drug targets (>40 common drug targets): low or statistically-insignificant
pIC50 (MOR; TANGO, antagonist): 7.92
ligation of Mas-related GPCRs (Mas-related GPCRs): not strongly ligated
displacement of [3H]DAMGO from MOR [6]: 85%

Compound: COC(=O)C1=C[C@@]23CCCC[C@H]2[C@@H]2C[C@H]([C@H]4CCC[C@@H](C)N4)C(C)(O3)[C@H]12 [GB18, methyl (2R,3aS,5aR,9aS,9bS)-3-methyl-2-((2R,6R)-6-methylpiperidin-2-yl)-1,2,3,3a,6,7,8,9,9a,9b-decahydro-3,5a-epoxycyclopenta[a]naphthalene-4-carboxylate]
inhibition of mouse preening (mouse [7]): inhibition of preening; also recorded: inhibited mouse preening
antagonism of KOR (KOR [4]; FIG. 3): high potency
effect on pain threshold (mouse [8]): without effect; also recorded: no effect
antagonism of MOR (MOR; FIG. 3): high potency
binding to M1-5 (M1-5): does not bind

Compound: COC(=O)C1=C2C3(O)CC4CC5C3CCC(C)N5C24C2CCCC(OC)C2C1OC(=O)c1ccccc1 (stereo not drawn) [Himandrine]
heart rate (cats): reduced heart rate
hypotension (cats): marked and sustained hypotension

Compound: C[C@@H]1CC[C@H]2[C@H](C[C@@H]3C[C@@]2(O)C2=CC(=O)[C@H]4CCCC[C@@H]4[C@H]23)N1C [Himbadine]
antispasmodic activity (rabbit intestine): significant antispasmodic activity

Emax (KOR [2]; [13]): 13%
IC50 (KOR [1]): 5000 nM
Compound: COC(=O)C1CC23CCCCC2C2CC(C4CCCC(C)N4)C4(C)OC23C14 (stereo not drawn) [drawing 153]

Agonist Emax (% U69,593) (KOR [9]): 10* % U69,593
IC50 (KOR [1]): > 10000 nM
Compound: COC(=O)C1CC23CCCCC2C2CC(C4CCCC(C)N4)C4(C)OC23C14 (stereo not drawn) [drawing 154]

Compound: COC1CC23CCCCC2C2CC(C4CCCC(C)N4)C4(C)OC23C14 (stereo not drawn) [drawing 167]
Agonist Emax (% U69,593) (KOR [2]): 10* % U69,593
IC50 (KOR [1]): 6250 nM

Compound: COC1CC23CCCCC2C2CC(C4CCCC(C)N4)C4(C)OC23C14 (stereo not drawn) [drawing 168]
Emax (KOR [2]; [12]): 17%

Compound: COC(=O)C1=C2C3(O)CC4CC5C3CCC(C)N5C24C2CCC(O)C(OC)C2C1OC(=O)c1ccccc1 (stereo not drawn) [himandridine]
hypotensive activity (mammals [10]; 2.5 mg/kg): moderate to marked hypotensive activity

Compound: CC1CCCC(C=CC2C3CCCCC3CC3C(=O)OC(C)C32)N1 (stereo not drawn) [himbeline]
depressant and hypotensive activity (mammals [10]; no dose listed): weakly depressant and hypotensive

Compound: himandravine
CNS depression (mammals [11]): strong CNS depression
anticonvulsant activity against electroshock seizure (mammals [11]): anticonvulsant activity
